# Assay results published in PMC7144320, “Antitumor properties of certain spirooxindoles towards hepatocellular carcinoma endowed with antioxidant activity” (Journal of Enzyme Inhibition and Medicinal Chemistry, 2020).
# Where “and” joins values, the source holds several entries; their conditions need not be identical. Identical values can stand only once.
# Key:
# [1] = tested on: HepG2 hepatocellular carcinoma cell line; test: MTT anti-proliferative assay, HepG2; format: cell-based; details: Homo sapiens, 48 h of incubation
# Method: (§1) Spirooxindoles 6a–p were evaluated for their anti-proliferative potency towards HepG2 liver cancer and PC-3 prostate cancer cell lines. Both cells lines were cultured as monolayers in DMEM supplemented with 10% foetal bovine serum (FBS), L-glutamine (2 mM), penicillin (100 U/mL) and streptomycin sulphate (100 µg/mL). Then, cells were sub-cultured with trypsine/EDTA solution, counted with haemocytometer and plated onto 96-well plates (5000 cells/well) and left overnight so as to form a semi-confluent monolayer.
# (§2) Spirooxindoles 6a–p were tested for their in vitro anti-HCC activity against HepG2 cell line, and for their anti-prostate cancer activity against PC-3 cell line by the use of MTT reduction assay. The anticancer drug Adriamycin was co-assayed as the positive control.
# [2] = tested on: PC-3 prostate cancer cell line; test: MTT anti-proliferative assay, PC-3; format: cell-based; details: 48 h of incubation
# Method: as §1, §2
# [3] = tested on: non-tumorigenic human breast MCF-10A cell line; test: Cytotoxicity towards non-tumorigenic MCF-10A cells; format: cell-based
# HepG2 cells [4] = test: Cell cycle analysis (PI staining, flow cytometry); format: cell-based; details: HepG2, 6.9 µM (IC50), 24 h
# Method: The samples were analysed by a flow cytometer (BectonDickinson FACSCalibur, BD, USA) and data were analysed using the CellQuest software (Becton Dickinson).
# The impact of spirooxindole 6a on the normal cell cycle progression was investigated using flow cytometric analysis of the DNA ploidy in HepG2 cells. […] Alteration of the Pre-G phase and arrest of G2-M phase may imply apoptosis as a potential mechanism for 6a-induced cancer cell death.
# Bax = test: ELISA of apoptotic marker Bax in HepG2 cells; format: cell-based; details: HepG2 treated at IC50 (6.9 µM)
# Method: (§3) The levels of the apoptotic markers caspase-3, caspase-9, p53 and Bax, as well as the anti-apoptotic marker Bcl-2 were evaluated by the use of ELISA colorimetric kits per the manufacturer’s instructions, as reported earlier[28]^,[29]. Furthermore, the pro-apoptotic potential of spirooxindole 6a towards HepG2 cells was assessed using FITC Annexin V Apoptosis Detection Kit by flow cytometry, according to the manufacturer’s protocol and referring to the reported procedures[30]^,[31].
# (§4) The Bax/Bcl-2 ratio is considered as a decisive value that gives a real insight to the overall pro-apoptotic impact of the examined compound.
# Bcl-2 = test: ELISA of anti-apoptotic marker Bcl-2 in HepG2 cells; format: cell-based; details: HepG2 treated at IC50 (6.9 µM)
# Method: as §3, §4
# caspase-3 = test: ELISA of active caspase-3 in HepG2 cells; format: cell-based; details: HepG2 treated at IC50 (6.9 µM)
# Method: as §3
# (§5) The elevated Bax/Bcl-2 ratio aroused the assessment of the expression levels of the pro-apoptotic active caspase-3, caspase-9 and p53 tumour suppressor protein.
# caspase-9 = test: ELISA of active caspase-9 in HepG2 cells; format: cell-based; details: HepG2 treated at IC50 (6.9 µM)
# Method: as §3, §5
# p53 = test: ELISA of p53 in HepG2 cells; format: cell-based; details: HepG2 treated at IC50 (6.9 µM)
# Method: as §3, §5
# HepG2 cells [5] = test: Annexin V-FITC/PI apoptosis assay; format: cell-based; details: HepG2, 6.9 µM (IC50)
# Method: as §3
# [6] = DPPH radical scavenging assay; details: mean ± SD of three experiments; 30 min, 517 nm
# Method: The antioxidant potential of spirooxindoles 6a–p against DPPH˙ was evaluated as per previously described procedures by Brand-Williams et al.[32]. DPPH solution was prepared by dissolving 0.024 g DPPH in methanol (100 mL). In 96-well plates, × μL sample and 200-x μL DPPH solution were added. The plate was incubated for 30 min at room temperature in the dark, and finally, absorbance was recorded at 517 nm wavelength. Ascorbic acid was used as positive control. The percent radical scavenging potential was calculated for each compound via the following equation: Scavenging effect (%) = {(Absorbance of control − Absorbance of sample)/Absorbance of control} × 100.
# The DPPH (2,2-diphenyl-1-picrylhydrazyl) radical scavenging activity assay is considered as one of the most common and simple methods for measuring the antioxidant ability to trap free radicals. […] Substances that have the potential to act as electron donors result in reduction of this DPPH radical to the corresponding DPPH2 disclosing their antioxidant potential. The principle of the method relies upon measuring the absorbance of the odd electrons of DPPH at 517 nm. The absorbance decreases, in the presence of free radical scavengers, proportional to the decrease of the DPPH radical concentration.
# [7] = Ferric reducing antioxidant power (FRAP); details: 593 nm, 30 min at 37 °C
# Method: The Benzie and Strain method[33] was adopted to assess the ferric reducing antioxidant power (FRAP) for spirooxindoles 6a–p. Absorbance of mixtures was recorded at 593 nm after incubation for 30 min at 37 °C. FRAP results were expressed as μM Fe^2+ equivalents.
# FRAP assay is a widely used antioxidant assay that uses antioxidant substances as reducing agents in a redox-linked colorimetric reaction, wherein Fe^3+ is reduced to Fe^2+ at acidic pH that results in a formation of a coloured ferrous-probe complex from a colourless ferric-probe complex. In this assay, the electron donation capacity (reflecting the electron transfer ability) of the examined compounds is evaluated.
# In this study, all spirooxindoles 6a–p herein reported were evaluated for their potential FRAP. The results were expressed as µM Fe^2+ equivalents and presented in Table 6, where the higher µM Fe^2+ equivalents value means higher FRAP and subsequently higher antioxidant capacity.
# [8] = tested on: HepG2 hepatocellular carcinoma cell line; test: MTT anti-proliferative assay, HepG2; format: cell-based; details: 48 h exposure, phase contrast microscopy
structure (smiles),measurement,setting,value
N#CC1=C(c2ccccc2)Nc2c(c(-c3cccs3)nn2-c2ccccc2)C12C(=O)Nc1ccccc12 (centres unmarked) [Compound 6a],IC50,[1],6.9 µM
same,IC50,[2],11.8 µM
same,IC50,[3],94.6 µM
same,decrease of S phase with respect to control,HepG2 cells [4],~0.37 folds
same,increase of G2/M phase related to control,HepG2 cells [4],2.1 folds
same,increase of Pre-G phase related to control,HepG2 cells [4],11.9 folds
same,Bax expression level,Bax,232.2 ng/mL
same,"Bax, folds of control",Bax,5.7 folds of control
same,Bax/Bcl-2 ratio,Bax,92.5
same,"Bcl-2, folds of control",Bcl-2,0.57 folds of control
same,Bcl-2 expression level,Bcl-2,2.51 ng/mL
same,down-regulation of Bcl-2 expression compared to control,Bcl-2,~42%
same,Caspase-3 expression level,caspase-3,475.9 pg/mL
same,"Caspase-9, folds of control",caspase-9,~12.27 folds of control
same,Caspase-9 expression level,caspase-9,26.92 ng/mL
same,"p53, folds of control",p53,~10.03 folds of control and ~10 folds of control
same,p53 expression level,p53,774.5 pg/mL
same,total increase in apoptosis with respect to control,HepG2 cells [5],about 16.3 folds
same,"late apoptosis (upper right quadrant), annexin-V positive cells",HepG2 cells [5]; control 0.33%,14.14%
same,"early apoptosis (lower right quadrant), annexin-V positive cells",HepG2 cells [5]; control 0.95%,6.76%
same,DPPH radical scavenging IC50,[6],29.76 ± 1.82 µg/mL
same,"FRAP, µM (Fe^2+ Eq.)",[7],11.98 µM (Fe^2+ Eq.)
same,Morphological changes of HepG2 cells,[8],"cell rounding, shrinkage and monolayer disruption"
